PMC3586729 (Nature Communications, 2013)

Target: T1, F. pringlei R884G mutant C3 PEPC (Flaveria pringlei, UniProt Q01647, R885G)
T1 sequence (Q01647 1-967 R885G): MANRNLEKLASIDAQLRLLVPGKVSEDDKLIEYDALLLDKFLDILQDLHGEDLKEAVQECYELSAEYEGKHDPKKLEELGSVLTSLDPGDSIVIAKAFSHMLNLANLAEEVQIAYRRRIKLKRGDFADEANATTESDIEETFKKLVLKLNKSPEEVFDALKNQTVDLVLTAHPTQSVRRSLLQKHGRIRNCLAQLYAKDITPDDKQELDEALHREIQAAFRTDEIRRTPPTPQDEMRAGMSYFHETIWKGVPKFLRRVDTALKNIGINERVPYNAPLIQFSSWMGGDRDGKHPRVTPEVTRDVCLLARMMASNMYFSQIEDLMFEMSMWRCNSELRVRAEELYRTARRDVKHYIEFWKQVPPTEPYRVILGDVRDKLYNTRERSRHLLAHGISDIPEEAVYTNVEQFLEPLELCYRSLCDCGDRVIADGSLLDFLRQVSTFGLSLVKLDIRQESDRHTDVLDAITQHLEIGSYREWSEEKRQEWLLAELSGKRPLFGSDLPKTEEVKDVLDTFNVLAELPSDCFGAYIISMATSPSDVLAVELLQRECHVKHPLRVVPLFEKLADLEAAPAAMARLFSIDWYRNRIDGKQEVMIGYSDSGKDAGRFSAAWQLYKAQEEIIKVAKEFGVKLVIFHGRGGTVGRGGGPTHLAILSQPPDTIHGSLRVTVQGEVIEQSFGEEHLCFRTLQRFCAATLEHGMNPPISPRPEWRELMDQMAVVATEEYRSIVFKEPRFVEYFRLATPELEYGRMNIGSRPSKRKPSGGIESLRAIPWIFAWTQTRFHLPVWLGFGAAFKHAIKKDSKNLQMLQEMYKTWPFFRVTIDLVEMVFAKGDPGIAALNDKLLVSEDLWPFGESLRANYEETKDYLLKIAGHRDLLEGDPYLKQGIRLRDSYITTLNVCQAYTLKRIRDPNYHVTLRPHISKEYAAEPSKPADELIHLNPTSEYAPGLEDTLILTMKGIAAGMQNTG
Type: biochemical
Settings: C3 PEPC R884G versus wild-type C3 PEPC from F. pringlei

## O=C(O)CC(O)C(=O)O (stereo not shown) [malate]
  malate tolerance of the engineered enzyme increased by a factor: ~ 3
